Laboratory results as given in patent publication US10118947B2, “Modulation of structured polypeptide specificity” (BICYCLE THERAPEUTICS LIMITED, priority 2013, dated 2018).
Like-named read-outs stand apart in the source and are kept apart here. Each block holds one compound with its values, some of them ahead of it. Numbered stars: 1 amine (or outer) side, 2 acyl side, 3 side chain; on linkers, the order of the positions; unused ones are H or OH. Bridge positions count the residues as written; N and C are the ends. Square brackets hold non-standard residues; d marks the D form. Peptide text beside a SMILES is read from it. TBMB = c1c(C[*:1])cc(C[*:3])cc1C[*:2]; X1 = O=C([C@H](Cn1cncn1)N[*:1])[*:2]; 2Pal = N[C@@H](Cc1ccccn1)C(=O)O; Chg = N[C@H](C(=O)O)C1CCCCC1; NMeS = CN[C@@H](CO)C(=O)O; Sar = CNCC(=O)O

Target: T1, human plasma Kallikrein (Homo sapiens, UniProt P03952)
T1 construct: purchased Stratech, UK
Assay: Functional enzyme inhibition assay with fluorogenic substrate Z-PheArg-AMC, human plasma Kallikrein
Assay type: biochemical
Conditions: for F (Kivar/KiWT): ratio of Ki to wild type
Procedure: Functional enzyme assays were conducted in 10 mM Tris HCl, 150 mM NaCl, 10 mM MgCl2, 1 mM CaCl2) and 1 mg/mL BSA (all Sigma UK) pH7.4 at 25° C. in solid black 96 well plates. Briefly 26.5 pM human plasma Kallikrein (purchased from Stratech, UK) or 500 pM rat plasma Kallikrein (expressed and purified in house) were incubated in the absence or presence of increasing concentrations of test peptide for 15 minutes before addition of the fluorogenic substrate Z-PheArg-AMC (Enzo Lifesciences UK) to a final assay concentration of 100 μM in 4% DMSO. Release of AMC was measured using a Pherastar FS (BMG Labtech), excitation 360 nm, emission 460 nm. The rate of the linear phase of the reaction, typically 5 to 45 minutes, was calculated in MARS data analysis software (BMG labtech). The rate was then used to calculate the IC50 and Ki in Prism (GraphPad). A four parameter inhibition non-linear regression equation was used to calculate the IC50.
Peptides were dissolved as the TFA-salts in their powder form, and stock solutions were usually prepared in water. All solutions were centrifuged and filtered ([…] syringe filters) prior absorption measurement at 280 nm. […] For peptides containing non-natural amino acids with suspected chromophoric properties (i.e. NorHar, 4PhenylPro, 3Pal, 4Pal, Tic, 4GuanPhe, 4,4-BPAI, 3,3-DPA, 1NAI, 2NAI, 4BenzylPro, Ind) concentrations were determined by weighing the powder and dissolving the peptide in a defined quantity of water.

[1] = Table 3c, D-Alanine scan in Loop2, read-out: Ki
[2] = Table 24b, residue 7 modifications, read-out: Ki

T1 sequence (P03952 20-638): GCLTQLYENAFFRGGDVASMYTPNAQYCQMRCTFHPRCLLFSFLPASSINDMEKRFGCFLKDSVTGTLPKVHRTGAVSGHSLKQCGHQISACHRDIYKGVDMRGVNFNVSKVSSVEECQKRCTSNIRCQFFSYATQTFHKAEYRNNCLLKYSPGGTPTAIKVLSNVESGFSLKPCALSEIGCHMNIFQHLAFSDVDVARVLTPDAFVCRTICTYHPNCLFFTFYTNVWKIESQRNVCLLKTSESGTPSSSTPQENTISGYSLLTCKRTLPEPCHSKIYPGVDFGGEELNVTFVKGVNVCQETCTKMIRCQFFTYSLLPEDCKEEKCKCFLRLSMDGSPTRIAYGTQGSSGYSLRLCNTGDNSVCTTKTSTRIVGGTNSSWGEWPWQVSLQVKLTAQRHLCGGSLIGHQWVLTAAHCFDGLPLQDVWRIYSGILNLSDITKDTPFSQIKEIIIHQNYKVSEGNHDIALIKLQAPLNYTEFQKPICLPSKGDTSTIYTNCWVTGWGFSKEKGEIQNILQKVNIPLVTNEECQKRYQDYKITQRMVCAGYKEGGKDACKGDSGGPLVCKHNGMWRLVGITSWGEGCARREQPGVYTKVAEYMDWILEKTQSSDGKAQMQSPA

SMILES: CC(C)C[C@@H]1NC(=O)[C@H](CC(=O)O)NC(=O)[C@H](CCC(N)=O)NC(=O)[C@H](Cc2c[nH]cn2)NC(=O)[C@H](C)NC(=O)[C@@H]2CSCc3cc(cc(c3)CSC[C@@H](C(=O)N[C@@H](C)C(N)=O)NC1=O)CSC[C@H](NC(=O)[C@H](C)N)C(=O)N[C@@H](C)C(=O)N[C@@H](Cc1c[nH]c3ccccc13)C(=O)N1CCC[C@H]1C(=O)N[C@@H](C)C(=O)N[C@@H](CCCNC(=N)N)C(=O)N2 [06-34-03-Ala1,6] (H-ACAWPARCAHQDLCA-NH2; linker 2-8-14 via TBMB)
potency / binding to kallikrein (in words): retained full potency compared to the parent

potency / binding to kallikrein (in words): reduction in potency
SMILES: CC(C)C[C@@H]1NC(=O)[C@H](CC(=O)O)NC(=O)[C@H](CCC(N)=O)NC(=O)[C@H](Cc2c[nH]cn2)NC(=O)CN(C)C(=O)[C@@H]2CSCc3cc(cc(c3)CSC[C@H](NC(=O)[C@H](C)N)C(=O)N(C)CC(=O)N[C@@H](Cc3c[nH]c4ccccc34)C(=O)N3CCC[C@H]3C(=O)N[C@@H](C)C(=O)N[C@@H](CCCNC(=N)N)C(=O)N2)CSC[C@@H](C(=O)N[C@@H](C)C(N)=O)NC1=O [06-34-03-N-MeGly1,6, ACN-MeGWPARC(N-MeG)HQDLCA] (H-AC[Sar]WPARC[Sar]HQDLCA-NH2; linker 2-8-14 via TBMB; N-terminus and C-terminus assumed)

SMILES: CC(C)C[C@@H]1NC(=O)[C@H](CC(=O)O)NC(=O)[C@H](CCC(N)=O)NC(=O)[C@H](Cc2c[nH]cn2)NC(=O)[C@H](CC(C)C)NC(=O)[C@@H]2CSCc3cc(cc(c3)CSC[C@H](NC(=O)[C@H](C)N)C(=O)N(C)[C@@H](CO)C(=O)N[C@@H](Cc3c[nH]c4ccccc34)C(=O)N3CCC[C@H]3C(=O)N[C@@H](C)C(=O)N[C@@H](CCCNC(=N)N)C(=O)N2)CSC[C@@H](C(=O)N[C@@H](C)C(N)=O)NC1=O [06-34-18-N-MeSer1] (H-AC[NMeS]WPARCLHQDLCA-NH2; linker 2-8-14 via TBMB)
Ki (Ki human PK (nM), Table 6): 0.56 nM

Ki (Table 24a, residue 6 modification in the context of Ac-(06-34-18), read-out: Ki (nM) Ac-(06-34-18)): 0.13 nM
SMILES: CC(=O)N[C@H]1CSCc2cc3cc(c2)CSC[C@H](NC(=O)[C@H](CCCNC(=N)N)NC(=O)[C@H](C)NC(=O)[C@@H]2CCCN2C(=O)[C@H](Cc2c[nH]c4ccccc24)NC(=O)[C@H](CO)NC1=O)C(=O)N[C@@H](C1CCCCC1)C(=O)N[C@@H](Cc1c[nH]cn1)C(=O)N[C@@H](CCC(N)=O)C(=O)N[C@@H](CC(=O)O)C(=O)N[C@@H](CC(C)C)C(=O)N[C@H](C(N)=O)CSC3 [Ac-(06-34-18) Chg6] (Ac-CSWPARC[Chg]HQDLC-NH2; linker 1-7-13 via TBMB)

SMILES: CC(=O)N[C@H]1CSCc2cc3cc(c2)CSC[C@H](NC(=O)[C@H](CCCNC(=N)N)NC(=O)[C@@H](C)NC(=O)[C@@H]2CCCN2C(=O)[C@H](Cc2c[nH]c4ccccc24)NC(=O)[C@H](CO)NC1=O)C(=O)N[C@@H](CC(C)C)C(=O)N[C@@H](Cc1c[nH]cn1)C(=O)N[C@@H](CCC(N)=O)C(=O)N[C@@H](CC(=O)O)C(=O)N[C@@H](CC(C)C)C(=O)N[C@H](C(N)=O)CSC3 [Ac-(06-34-18) D-Ala4]
reduction in potency/affinity compared to wildtype: 7000 fold

Ki [1]: 1040 nM
F (Kivar/KiWT) (Table 3c): 2469
SMILES: CC(=O)N[C@H]1CSCc2cc3cc(c2)CSC[C@H](NC(=O)[C@H](CCCNC(=N)N)NC(=O)[C@H](C)NC(=O)[C@@H]2CCCN2C(=O)[C@H](Cc2c[nH]c4ccccc24)NC(=O)[C@H](CO)NC1=O)C(=O)N[C@H](C)C(=O)N[C@@H](Cc1c[nH]cn1)C(=O)N[C@@H](CCC(N)=O)C(=O)N[C@@H](CC(=O)O)C(=O)N[C@@H](CC(C)C)C(=O)N[C@H](C(N)=O)CSC3 [Ac-(06-34-18) D-Ala6] (Ac-CSWPARC[dA]HQDLC-NH2; linker 1-7-13 via TBMB)

Ki [1]: 11.7 nM
F (Kivar/KiWT) (Table 3c): 28
SMILES: CC(=O)N[C@H]1CSCc2cc3cc(c2)CSC[C@H](NC(=O)[C@H](CCCNC(=N)N)NC(=O)[C@H](C)NC(=O)[C@@H]2CCCN2C(=O)[C@H](Cc2c[nH]c4ccccc24)NC(=O)[C@H](CO)NC1=O)C(=O)N[C@@H](CC(C)C)C(=O)N[C@@H](Cc1c[nH]cn1)C(=O)N[C@H](C)C(=O)N[C@@H](CC(=O)O)C(=O)N[C@@H](CC(C)C)C(=O)N[C@H](C(N)=O)CSC3 [Ac-(06-34-18) D-Ala8] (Ac-CSWPARCLH[dA]DLC-NH2; linker 1-7-13 via TBMB)

Ki [1]: 0.87 nM
F (Kivar/KiWT) (Table 3c): 2
SMILES: CC(=O)N[C@H]1CSCc2cc3cc(c2)CSC[C@H](NC(=O)[C@H](CCCNC(=N)N)NC(=O)[C@H](C)NC(=O)[C@@H]2CCCN2C(=O)[C@H](Cc2c[nH]c4ccccc24)NC(=O)[C@H](CO)NC1=O)C(=O)N[C@@H](CC(C)C)C(=O)N[C@@H](Cc1c[nH]cn1)C(=O)N[C@@H](CCC(N)=O)C(=O)N[C@H](C)C(=O)N[C@@H](CC(C)C)C(=O)N[C@H](C(N)=O)CSC3 [Ac-(06-34-18) D-Ala9] (Ac-CSWPARCLHQ[dA]LC-NH2; linker 1-7-13 via TBMB)

SMILES: CC(=O)N[C@H]1CSCc2cc3cc(c2)CSC[C@H](NC(=O)[C@@H](CCCNC(=N)N)NC(=O)[C@H](C)NC(=O)[C@@H]2CCCN2C(=O)[C@H](Cc2c[nH]c4ccccc24)NC(=O)[C@H](CO)NC1=O)C(=O)N[C@@H](CC(C)C)C(=O)N[C@@H](Cc1c[nH]cn1)C(=O)N[C@@H](CCC(N)=O)C(=O)N[C@@H](CC(=O)O)C(=O)N[C@@H](CC(C)C)C(=O)N[C@H](C(N)=O)CSC3 [Ac-(06-34-18) D-Arg5]
reduction in potency/affinity compared to wildtype: 300 fold

SMILES: CC(=O)N[C@H]1CSCc2cc3cc(c2)CSC[C@H](NC(=O)[C@H](CCCNC(=N)N)NC(=O)[C@H](C)NC(=O)[C@@H]2CCCN2C(=O)[C@@H](Cc2c[nH]c4ccccc24)NC(=O)[C@H](CO)NC1=O)C(=O)N[C@@H](CC(C)C)C(=O)N[C@@H](Cc1c[nH]cn1)C(=O)N[C@@H](CCC(N)=O)C(=O)N[C@@H](CC(=O)O)C(=O)N[C@@H](CC(C)C)C(=O)N[C@H](C(N)=O)CSC3 [Ac-(06-34-18) D-Trp2]
reduction in potency/affinity compared to wildtype: 45000 fold

SMILES: CC(=O)N[C@H]1CSCc2cc3cc(c2)CSC[C@H](NC(=O)[C@H](CCCNC(=N)N(C)C)NC(=O)[C@H](C)NC(=O)[C@@H]2CCCN2C(=O)[C@H](Cc2c[nH]c4ccccc24)NC(=O)[C@H](CO)NC1=O)C(=O)N[C@@H](CC(C)C)C(=O)N[C@@H](Cc1c[nH]cn1)C(=O)N[C@@H](CCC(N)=O)C(=O)N[C@@H](CC(=O)O)C(=O)N[C@@H](CC(C)C)C(=O)N[C@H](C(N)=O)CSC3 [Ac-(06-34-18) NDMA5]
Ki (Table 11, read-out: Ki (nM) (human kallikrein)): 510 nM

Ki [2]: 455 nM
F (Kivar/KiWT) (Table 24b): 1084
SMILES: CC(=O)N[C@H]1CSCc2cc3cc(c2)CSC[C@H](NC(=O)[C@H](CCCNC(=N)N)NC(=O)[C@H](Cc2ccc(O)cc2)NC(=O)[C@@H]2CCCN2C(=O)[C@H](Cc2ccccc2)NC(=O)[C@H](CO)NC1=O)C(=O)N[C@@H](CC(C)C)C(=O)N[C@@H](Cn1cncn1)C(=O)N[C@@H](CCC(N)=O)C(=O)N[C@@H](CC(=O)O)C(=O)N[C@@H](CC(C)C)C(=O)N[C@H](C(N)=O)CSC3 [Ac-(06-34-18) Phe2 Tyr4 1,2,4-TriAz7] (Ac-CSFPYRCL[X1]QDLC-NH2; linker 1-7-13 via TBMB)

Ki [2]: 53 nM
F (Kivar/KiWT) (Table 24b): 126
SMILES: CC(=O)N[C@H]1CSCc2cc3cc(c2)CSC[C@H](NC(=O)[C@H](CCCNC(=N)N)NC(=O)[C@H](Cc2ccc(O)cc2)NC(=O)[C@@H]2CCCN2C(=O)[C@H](Cc2ccccc2)NC(=O)[C@H](CO)NC1=O)C(=O)N[C@@H](CC(C)C)C(=O)N[C@@H](Cc1ccccn1)C(=O)N[C@@H](CCC(N)=O)C(=O)N[C@@H](CC(=O)O)C(=O)N[C@@H](CC(C)C)C(=O)N[C@H](C(N)=O)CSC3 [Ac-(06-34-18) Phe2 Tyr4 2Pal7] (Ac-CSFPYRCL[2Pal]QDLC-NH2; linker 1-7-13 via TBMB)
